# ChEMBL document CHEMBL1156829 (Proc Natl Acad Sci U S A, 2008)
# Assays:
# Plasmodium falciparum [1] = assay: NOVARTIS: Inhibition of Plasmodium falciparum 3D7 (drug-susceptible) proliferation in erythrocyte-based infection assay; type: functional, organism-based; conditions: Plasmodium falciparum, 3D7
# Plasmodium falciparum [2] = assay: NOVARTIS: Inhibition of Plasmodium falciparum W2 (drug-resistant) proliferation in erythrocyte-based infection assay; type: functional, organism-based; conditions: Plasmodium falciparum, W2; read-out: EC50
# [3] = NOVARTIS: Cytotoxicity against human hepatocellular carcinoma cell line (Huh7); type: toxicity, cell-based, Huh-7; conditions: Huh7 cells (hepatocellular carcinoma cell line)
Compound,EC50 (Plasmodium falciparum [1]),EC50 (Plasmodium falciparum [2]),CC50 [3]
O=C(CSc1oc(-c2ccc(Cl)cc2)nc1[P+](c1ccccc1)(c1ccccc1)c1ccccc1)c1ccccc1,851 nM,> 1180 nM,> 10000 nM
COc1cc(CNCCCn2ccnc2)ccc1OCc1ccccc1,> 1250 nM,> 1170 nM,> 10000 nM
c1ccc(CSc2nc3ccncc3[nH]2)cc1,> 1250 nM,> 1150 nM,> 10000 nM
NC(Cc1ccccc1)C(=O)N1CCC(Nc2nsc3ccccc23)C1 (configuration not stated),1110 nM,1510 nM,12700 nM
O=C(COc1cccc(Br)c1)NN=Cc1ccccc1F,> 1250 nM,> 1190 nM,> 10000 nM
CCCCCN(C(=O)c1ccc(Cl)cc1)C(CC)c1nc2ccccc2c(=O)n1-c1ccccc1OC (configuration not stated),878 nM,1050 nM,> 8820 nM
CCN1CCCC1CNC(=O)CN1N=C(c2ccccc2)Cn2c(cc3ccccc32)C1=O (configuration not stated),> 1250 nM,> 1130 nM,> 10000 nM
COC(=O)[C@@H]1C[C@@H](NC(=O)c2ccc(OC)cc2OC)CN1CC(c1ccccc1)c1ccccc1,590 nM,1190 nM,> 10000 nM
COc1cc(OC)cc(-n2c(=O)c3sccc3n(CC(=O)c3ccc(F)cc3)c2=O)c1,> 1250 nM,> 1170 nM,> 10000 nM
CCCNC(=O)CSc1nc(C)c(Cc2ccccc2)c(=O)n1C,1280 nM,1170 nM,> 10000 nM
CCN(CC)S(=O)(=O)c1cc(C(=O)O)ccc1Cl,640 nM,> 1170 nM,> 10000 nM
CN1CCC(N[C@@H]2C[C@@H](C(=O)N3CCN(c4cccc(C(F)(F)F)c4)CC3)N(Cc3ccccc3Cl)C2)CC1,> 1250 nM,> 1170 nM,> 10000 nM
O=C(Cc1ccc(F)cc1Cl)N1CCN(c2cccc3c2C(=O)N(Cc2ccccn2)C3=O)CC1,> 1250 nM,> 1170 nM,> 10000 nM
CC(C)c1ccc(OCC(=O)NN=Cc2cccc([N+](=O)[O-])c2)cc1,> 1250 nM,> 1170 nM,> 10000 nM
O=C(Nc1ccc(Br)cn1)c1ccc(Oc2cc(Oc3cccc(Cl)c3)cc([N+](=O)[O-])c2)cc1,> 1250 nM,> 1180 nM,> 10000 nM
CCOC(=O)NN=C1c2ccccc2-c2nc3nonc3nc21,1450 nM,1180 nM,> 10000 nM
C[C@H](Nc1cncc(-c2cccc(OC(F)(F)F)c2)n1)c1ccccc1,> 264 nM,1180 nM,> 10000 nM

Compound,EC50 (Plasmodium falciparum [1]),EC50 (Plasmodium falciparum [2]),CC50 [3]
COC(=O)N(C)C(C)(C)C(C)=NOC(=O)c1ccccc1,> 1620 nM,> 1180 nM,> 10000 nM
CCOP(=O)(OCC)C(O)c1ccc(C)cc1 (configuration not stated),> 1250 nM,> 1180 nM,> 10000 nM
COc1ccc(C(=O)C(CCC(CNC(C)(C)C)C(=O)c2ccc(OC)cc2)CNC(C)(C)C)cc1 (configuration not stated),1120 nM,1190 nM,> 10000 nM
CC(C)n1nnnc1CN1CCN(c2ccccc2F)CC1,> 1480 nM,> 1190 nM,> 10000 nM
COc1ccc(CCNc2nc(NCCCN(C)C)ncc2C(=O)NCc2ccccc2)cc1OC,605 nM,> 1190 nM,> 10000 nM
O=C1CC(c2cccc([N+](=O)[O-])c2)c2cc3c(cc2N1)OCO3 (configuration not stated),> 10200 nM,> 11800 nM,> 100000 nM
O=C(COc1ccc(-c2ncccn2)cc1CN1CCCCCC1)NCc1ccccc1C(F)(F)F,> 1250 nM,> 1150 nM,> 10000 nM
Cc1c(Cl)cccc1NC(=O)c1cccnc1Cl,> 1250 nM,> 1140 nM,> 10000 nM
COc1ccc(C2C(C(N)=O)=C(C)Nc3ncnn32)cc1OC (configuration not stated),380 nM,1150 nM,> 10000 nM
N#C/C(=C\c1cn(Cc2ccc(Cl)cc2Cl)c2ccccc12)c1nc2ccccc2[nH]1,315 nM,1150 nM,> 10000 nM
Cc1cc(C)c(CSC(=N)N)c(C)c1CSC(=N)N,1120 nM,> 1140 nM,> 10000 nM
CC(C)CNC(=O)c1cnc(NCCCN2CCCCC2C)nc1NCC1CCCCC1 (configuration not stated),434 nM,1170 nM,> 10000 nM
COc1ccc(OCC(=O)Nc2c(C)n(C)n(-c3ccccc3)c2=O)cc1,> 1250 nM,> 1160 nM,> 10000 nM
CCC(c1nc2ccccc2c(=O)n1-c1ccc(F)cc1)N(CCc1ccccc1)C(=O)COc1ccccc1 (configuration not stated),1030 nM,1140 nM,> 10000 nM
CCC(=O)c1c(C)n(-c2ccc(Br)cc2)c2ccc(O)cc12,> 769 nM,1140 nM,> 10000 nM
COc1ccc(CCNC(=O)c2cc(S(=O)(=O)N3CCC4(CC3)OCCO4)ccc2F)cc1OC,> 1250 nM,> 1160 nM,> 10000 nM
CCOC(=O)c1cnc2ccc(OCC)cc2c1NCC1CCCN1CC (configuration not stated),> 740 nM,1150 nM,> 10000 nM
